Key:
β-galactosidase = experiment: enzymatic cleavage of substrate to (20) by β-galactosidase; type: biochemical; settings: in the presence of β-galactosidase
Description: (§1) When dissolved in 50 mM phosphate buffer at pH 7.4 containing 5 mM magnesium chloride (MgCl2) compound (23)+(24) (mixture) had λmax of 454 nm (ε =22,000) and 344 nm (ε =14,000).

[1] = UV/visible absorption in 50 mM phosphate buffer pH 7.4 containing 5 mM MgCl2; type: physicochemical; settings: 50 mM phosphate buffer pH 7.4, 5 mM MgCl2
Description: as §1

[2] = protonated vs deprotonated form; cited from earlier work

Compound	Km (β-galactosidase)	rate (Kcat) of cleavage to (20) (β-galactosidase)	ε at λmax 344 nm ([1]; 344 nm)	ε at λmax 454 nm ([1]; 454 nm)	λmax ([1]; long-wavelength maximum)	λmax ([1]; second maximum)	shift in absorption (λmax) between the protonated form and the deprotonated form [2]
8-β-D-Galactopyranosyloxy-11-methyl-11H-dibenz[b,e][1,4]oxazepin-1-one(23) and 2-β-D-galactopyranosyloxy-11-methyl-11H-dibenz[b,e][-1,4]oxazepin-8-one (24) [(23)+(24)]	75 µM	1.32×10^4 mol. min^-1 /mol. active site	14,000	22,000	454 nm	344 nm	–
CC1Oc2cc(O)ccc2N=C2C=CC(=O)C=C21 (stereo not shown) [(20)]	–	–	–	–	–	–	122 nm

Reference: patent US5183743A, “Chromogenic dibenzoxazepinone and dibenzothiazepinone enzyme substrates” (Miles Inc., priority 1991, dated 1993)
